{"source": "patent US6737383B1", "about": "“Herbicidal oxadiazolidines” (priority 1999, dated 2004)", "key": {"bedstraw": {"system": "bedstraw", "experiment": "Test B pre/postemergence bedstraw", "type": "in vivo, Galium aparine", "in_short": "(§1)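 Herbicidal effect was estimated by eye on a ten-point control scale after plants spent twelve to sixteen days in a greenhouse following soil or foliar treatment. Foliar sprays targeted plants at one to four leaves; all doses were formulated in a non-phytotoxic solvent with surfactant.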"}, "blackgrass": {"system": "blackgrass", "experiment": "Test B pre/postemergence blackgrass", "type": "in vivo, Alopecurus myosuroides", "in_short": "as §1"}, "giant foxtail": {"system": "giant foxtail", "experiment": "Test B pre/postemergence giant foxtail", "type": "in vivo, Setaria faberii", "in_short": "as §1"}, "morningglory": {"system": "morningglory", "experiment": "Test B pre/postemergence morningglory", "type": "in vivo, Ipomoea hederacea", "in_short": "as §1"}, "pigweed": {"system": "pigweed", "experiment": "Test B pre/postemergence pigweed", "type": "in vivo, Amaranthus retroflexus", "in_short": "as §1"}, "rape": {"system": "rape", "experiment": "Test B pre/postemergence rape", "type": "in vivo, Brassica napus", "in_short": "as §1"}, "soybean": {"system": "soybean", "experiment": "Test B pre/postemergence soybean", "type": "in vivo, Glycine max", "in_short": "as §1"}, "sugar beet": {"system": "sugar beet", "experiment": "Test B pre/postemergence sugar beet", "type": "in vivo, Beta vulgaris", "in_short": "as §1"}, "velvetleaf": {"system": "velvetleaf", "experiment": "Test B pre/postemergence velvetleaf", "type": "in vivo, Abutilon theophrasti", "in_short": "as §1"}, "wheat": {"system": "wheat", "experiment": "Test B pre/postemergence wheat", "type": "in vivo, Triticum aestivum", "in_short": "as §1"}, "wild oat": {"system": "wild oat", "experiment": "Test B pre/postemergence wild oat", "type": "in vivo, Avena fatua", "in_short": "as §1"}, "purple nutsedge": {"system": "purple nutsedge", "experiment": "Test B pre/postemergence purple nutsedge", "type": "in vivo, Cyperus rotundus", "in_short": "as §1"}, "rice": {"system": "rice", "experiment": "Test B flood test rice", "type": "in vivo, Oryza sativa", "in_short": "(§2)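 Flood test on plants grown to the 2-leaf stage; treated plants kept in greenhouse twelve to sixteen days, then visually rated against controls on a 0 (no effect) to 10 (complete control) scale.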"}, "smallflower flatsedge": {"system": "smallflower flatsedge", "experiment": "Test B flood test smallflower flatsedge", "type": "in vivo, Cyperus difformis", "in_short": "as §2"}, "duck salad": {"system": "duck salad", "experiment": "Test B flood test duck salad", "type": "in vivo, Heteranthera limosa", "in_short": "as §2"}, "bamyardgrass": {"system": "bamyardgrass", "experiment": "Test B flood test barnyardgrass", "type": "in vivo, Echinochloa crus-galli", "in_short": "as §2"}, "[1]": {"conditions": "Postemergence, Rate 62 g/ha, scale 0 to 10, 0 is no effect, 10 is complete control"}, "[2]": {"conditions": "Postemergence, Rate 250 g/ha, scale 0 to 10, 0 no effect, 10 complete control"}, "[3]": {"conditions": "Preemergence, Rate 62 g/ha, scale 0 to 10, 0 is no effect, 10 is complete control"}, "[4]": {"conditions": "Preemergence, Rate 125 g/ha, scale 0 to 10 (0 no effect, 10 complete control)"}, "[5]": {"conditions": "Preemergence, Rate 250 g/ha, scale of 0 to 10 where 0 is no effect and 10 is complete control"}, "[6]": {"conditions": "Preemergence, Rate 500 g/ha, scale 0 (no effect) to 10 (complete control)"}, "[7]": {"conditions": "Rate 125 g/ha, Postemergence, scale 0 to 10, 0 no effect, 10 complete control"}, "[8]": {"conditions": "Rate 500 g/ha, Postemergence, scale 0 to 10, 0 no effect, 10 complete control"}, "[9]": {"conditions": "Rate 125 g/ha, Postemergence section (flood test species), scale 0 to 10, 0 no effect, 10 complete control"}, "[10]": {"conditions": "Rate 500 g/ha, listed under Postemergence (flood test species), scale 0 to 10, 0 no effect, 10 complete control"}, "[11]": {"conditions": "flood test, listed under Postemergence, Rate 250 g/ha, scale 0 to 10, 0 no effect, 10 complete control"}}, "data": [{"smiles": "Cc1ccccc1-n1c(=O)on(C(=O)N(c2ccc(F)c(F)c2)C(C)C)c1=O", "note": "[Compound 48]", "values": [{"measurement": "Bedstraw plant response rating", "setting": "bedstraw; [1]", "value": 0}, {"measurement": "Bedstraw plant response rating", "setting": "bedstraw; [2]", "value": 0}, {"measurement": "Plant response rating, Bedstraw", "setting": "bedstraw; [3]", "value": 0}, {"measurement": "Plant response rating, Bedstraw", "setting": "bedstraw; [4]", "value": 0}, {"measurement": "Plant response rating, Bedstraw", "setting": "bedstraw; [5]", "value": 0}, {"measurement": "Bedstraw plant response rating", "setting": "bedstraw; [6]", "value": 0}, {"measurement": "Bedstraw plant response rating", "setting": "bedstraw; [7]", "value": 0}, {"measurement": "Blackgrass plant response rating", "setting": "blackgrass; [1]", "value": 0}, {"measurement": "Blackgrass plant response rating", "setting": "blackgrass; [2]", "value": 0}, {"measurement": "Plant response rating, Blackgrass", "setting": "blackgrass; [3]", "value": 0}, {"measurement": "Plant response rating, Blackgrass", "setting": "blackgrass; [4]", "value": 0}, {"measurement": "Plant response rating, Blackgrass", "setting": "blackgrass; [5]", "value": 2}, {"measurement": "Blackgrass plant response rating", "setting": "blackgrass; [6]", "value": 2}, {"measurement": "Blackgrass plant response rating", "setting": "blackgrass; [7]", "value": 0}, {"measurement": "Blackgrass plant response rating", "setting": "blackgrass; [8]", "value": 0}, {"measurement": "Giant foxtail plant response rating", "setting": "giant foxtail; [1]", "value": 0}, {"measurement": "Giant foxtail plant response rating", "setting": "giant foxtail; [2]", "value": 2}, {"measurement": "Plant response rating, Giant foxtail", "setting": "giant foxtail; [3]", "value": 6}, {"measurement": "Plant response rating, Giant foxtail", "setting": "giant foxtail; [4]", "value": 9}, {"measurement": "Plant response rating, Giant foxtail", "setting": "giant foxtail; [5]", "value": 10}, {"measurement": "Giant foxtail plant response rating", "setting": "giant foxtail; [6]", "value": 10}, {"measurement": "Giant foxtail plant response rating", "setting": "giant foxtail; [7]", "value": 0}, {"measurement": "Giant foxtail plant response rating", "setting": "giant foxtail; [8]", "value": 3}, {"measurement": "Morningglory plant response rating", "setting": "morningglory; [1]", "value": 0}, {"measurement": "Morningglory plant response rating", "setting": "morningglory; [2]", "value": 0}, {"measurement": "Plant response rating, Morningglory", "setting": "morningglory; [3]", "value": 0}, {"measurement": "Plant response rating, Morningglory", "setting": "morningglory; [4]", "value": 0}, {"measurement": "Plant response rating, Morningglory", "setting": "morningglory; [5]", "value": 0}, {"measurement": "Morningglory plant response rating", "setting": "morningglory; [6]", "value": 0}, {"measurement": "Morningglory plant response rating", "setting": "morningglory; [7]", "value": 0}, {"measurement": "Morningglory plant response rating", "setting": "morningglory; [8]", "value": 1}, {"measurement": "Redroot pigweed plant response rating", "setting": "pigweed; [1]", "value": 0}, {"measurement": "Redroot pigweed plant response rating", "setting": "pigweed; [2]", "value": 0}, {"measurement": "Plant response rating, Redroot pigweed", "setting": "pigweed; [3]", "value": 0}, {"measurement": "Plant response rating, Redroot pigweed", "setting": "pigweed; [4]", "value": 0}, {"measurement": "Plant response rating, Redroot pigweed", "setting": "pigweed; [5]", "value": 0}, {"measurement": "Redroot pigweed plant response rating", "setting": "pigweed; [6]", "value": 0}, {"measurement": "Redroot pigweed plant response rating", "setting": "pigweed; [7]", "value": 0}, {"measurement": "Redroot pigweed plant response rating", "setting": "pigweed; [8]", "value": 0}, {"measurement": "Rape plant response rating", "setting": "rape; [1]", "value": 0}, {"measurement": "Rape plant response rating", "setting": "rape; [2]", "value": 0}, {"measurement": "Plant response rating, Rape", "setting": "rape; [3]", "value": 0}, {"measurement": "Plant response rating, Rape", "setting": "rape; [4]", "value": 0}, {"measurement": "Plant response rating, Rape", "setting": "rape; [5]", "value": 0}, {"measurement": "Rape plant response rating", "setting": "rape; [6]", "value": 0}, {"measurement": "Rape plant response rating", "setting": "rape; [7]", "value": 0}, {"measurement": "Rape plant response rating", "setting": "rape; [8]", "value": 0}, {"measurement": "Soybean plant response rating", "setting": "soybean; [1]", "value": 1}, {"measurement": "Soybean plant response rating", "setting": "soybean; [2]", "value": 1}, {"measurement": "Plant response rating, Soybean", "setting": "soybean; [3]", "value": 0}, {"measurement": "Plant response rating, Soybean", "setting": "soybean; [4]", "value": 0}, {"measurement": "Plant response rating, Soybean", "setting": "soybean; [5]", "value": 0}, {"measurement": "Soybean plant response rating", "setting": "soybean; [6]", "value": 0}, {"measurement": "Soybean plant response rating", "setting": "soybean; [7]", "value": 1}, {"measurement": "Soybean plant response rating", "setting": "soybean; [8]", "value": 1}, {"measurement": "Sugarbeets plant response rating", "setting": "sugar beet; [1]", "value": 0}, {"measurement": "Sugarbeets plant response rating", "setting": "sugar beet; [2]", "value": 0}, {"measurement": "Plant response rating, Sugarbeets", "setting": "sugar beet; [3]", "value": 0}, {"measurement": "Plant response rating, Sugarbeets", "setting": "sugar beet; [4]", "value": 0}, {"measurement": "Plant response rating, Sugarbeets", "setting": "sugar beet; [5]", "value": 0}, {"measurement": "Sugarbeets plant response rating", "setting": "sugar beet; [6]", "value": 0}, {"measurement": "Sugarbeets plant response rating", "setting": "sugar beet; [7]", "value": 0}, {"measurement": "Sugarbeets plant response rating", "setting": "sugar beet; [8]", "value": 0}, {"measurement": "Velvetleaf plant response rating", "setting": "velvetleaf; [1]", "value": 0}, {"measurement": "Velvetleaf plant response rating", "setting": "velvetleaf; [2]", "value": 0}, {"measurement": "Plant response rating, Velvetleaf", "setting": "velvetleaf; [3]", "value": 0}, {"measurement": "Plant response rating, Velvetleaf", "setting": "velvetleaf; [4]", "value": 0}, {"measurement": "Plant response rating, Velvetleaf", "setting": "velvetleaf; [5]", "value": 0}, {"measurement": "Velvetleaf plant response rating", "setting": "velvetleaf; [6]", "value": 0}, {"measurement": "Velvetleaf plant response rating", "setting": "velvetleaf; [7]", "value": 0}, {"measurement": "Velvetleaf plant response rating", "setting": "velvetleaf; [8]", "value": 0}, {"measurement": "Wheat plant response rating", "setting": "wheat; [1]", "value": 0}, {"measurement": "Wheat plant response rating", "setting": "wheat; [2]", "value": 0}, {"measurement": "Plant response rating, Wheat", "setting": "wheat; [3]", "value": 0}, {"measurement": "Plant response rating, Wheat", "setting": "wheat; [4]", "value": 0}, {"measurement": "Plant response rating, Wheat", "setting": "wheat; [5]", "value": 0}, {"measurement": "Wheat plant response rating", "setting": "wheat; [6]", "value": 0}, {"measurement": "Wheat plant response rating", "setting": "wheat; [7]", "value": 0}, {"measurement": "Wheat plant response rating", "setting": "wheat; [8]", "value": 0}, {"measurement": "Wild oats plant response rating", "setting": "wild oat; [1]", "value": 0}, {"measurement": "Wild oats plant response rating", "setting": "wild oat; [2]", "value": 0}, {"measurement": "Plant response rating, Wild oats", "setting": "wild oat; [4]", "value": 0}, {"measurement": "Plant response rating, Wild oats", "setting": "wild oat; [5]", "value": 2}, {"measurement": "Wild oats plant response rating", "setting": "wild oat; [6]", "value": 2}, {"measurement": "Wild oats plant response rating", "setting": "wild oat; [7]", "value": 0}, {"measurement": "Wild oats plant response rating", "setting": "wild oat; [8]", "value": 0}, {"measurement": "Nutsedge plant response rating", "setting": "purple nutsedge; [1]", "value": 0}, {"measurement": "Nutsedge plant response rating", "setting": "purple nutsedge; [2]", "value": 0}, {"measurement": "Plant response rating, Nutsedge", "setting": "purple nutsedge; [3]", "value": 0}, {"measurement": "Plant response rating, Nutsedge", "setting": "purple nutsedge; [4]", "value": 0}, {"measurement": "Plant response rating, Nutsedge", "setting": "purple nutsedge; [5]", "value": 0}, {"measurement": "Nutsedge plant response rating", "setting": "purple nutsedge; [6]", "value": 0}, {"measurement": "Nutsedge plant response rating", "setting": "purple nutsedge; [7]", "value": 0}, {"measurement": "Nutsedge plant response rating", "setting": "purple nutsedge; [8]", "value": 0}, {"measurement": "Rice plant response rating", "setting": "rice; [1]", "value": 0}, {"measurement": "Rice plant response rating", "setting": "rice; [9]", "value": 0}, {"measurement": "Rice plant response rating", "setting": "rice; [10]", "value": 0}, {"measurement": "Rice plant response rating", "setting": "rice; [11]", "value": 0}, {"measurement": "S. Flatsedge plant response rating", "setting": "smallflower flatsedge; [1]", "value": 0}, {"measurement": "S. Flatsedge plant response rating", "setting": "smallflower flatsedge; [9]", "value": 0}, {"measurement": "S. Flatsedge plant response rating", "setting": "smallflower flatsedge; [10]", "value": 0}, {"measurement": "S. Flatsedge plant response rating", "setting": "smallflower flatsedge; [11]", "value": 0}, {"measurement": "Ducksalad plant response rating", "setting": "duck salad; [1]", "value": 0}, {"measurement": "Ducksalad plant response rating", "setting": "duck salad; [10]", "value": 0}, {"measurement": "Ducksalad plant response rating", "setting": "duck salad; [11]", "value": 0}, {"measurement": "Barnyardgrass plant response rating", "setting": "bamyardgrass; [1]", "value": 0}, {"measurement": "Barnyardgrass plant response rating", "setting": "bamyardgrass; [9]", "value": 0}, {"measurement": "Barnyardgrass plant response rating", "setting": "bamyardgrass; [10]", "value": 0}, {"measurement": "Barnyardgrass plant response rating", "setting": "bamyardgrass; [11]", "value": 0}]}]}
